What is called IC50 is the concentration that gives 50% inhibition.

The structures appear in SMILES notation.

The target in this assay is human GLUT9 (Homo sapiens (Human), UniProt Q9NRM0). The experiment in a line: Evaluation of human GLUT9 inhibitory activity ([14C] uric acid uptake in human GLUT9 expressing HEK293T cells transduced with Uricase/Hyper). In kind it is cell-based. To be noted: final 300 μM uric acid, 6 min, human GLUT9 stably expressing HEK293T cells, read-out: humans GLUT9 inhibitory activity (IC50 value (μM)). The protocol: A method for measuring GLUT9 inhibitory activity using human GLUT9 expressing cells transduced with Uricase/Hyper is shown hereinafter. GLUT9 inhibitory activity ([…]) of the test compound was calculated based on the intracellular uptake amount of labeled uric acid ([^14C] uric acid) transported by GLUT9.
Sequence of human GLUT9 (Q9NRM0 other isoform, or with tags, fused parts or gaps): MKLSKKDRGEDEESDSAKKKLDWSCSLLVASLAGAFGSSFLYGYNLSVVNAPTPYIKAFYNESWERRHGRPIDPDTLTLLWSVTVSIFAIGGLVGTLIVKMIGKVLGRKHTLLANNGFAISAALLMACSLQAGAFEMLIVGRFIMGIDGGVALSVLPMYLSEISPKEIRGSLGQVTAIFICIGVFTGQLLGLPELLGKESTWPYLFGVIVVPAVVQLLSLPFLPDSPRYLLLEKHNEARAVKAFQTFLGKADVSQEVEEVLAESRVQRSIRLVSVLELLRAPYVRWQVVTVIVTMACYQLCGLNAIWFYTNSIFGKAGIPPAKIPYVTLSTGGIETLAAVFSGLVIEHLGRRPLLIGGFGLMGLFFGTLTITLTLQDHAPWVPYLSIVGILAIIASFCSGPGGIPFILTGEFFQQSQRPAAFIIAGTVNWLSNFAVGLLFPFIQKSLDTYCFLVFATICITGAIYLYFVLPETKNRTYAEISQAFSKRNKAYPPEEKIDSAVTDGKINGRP
1. Preparation of Human GLUT9 Expression Plasmid
Human GLUT9S coding region (NM_001001290.1) was amplified by PCR method using PrimeSTAR MAX DNA Polymerase (Takara Bio). The obtained PCR product was subjected to agarose gel electrophoresis, and the desired size of PCR product was purified by QIAquick Gel Extraction Kit (QIAGEN). Next, pEBMulti-Bsd vector (Wako Pure Chemical Industries, Ltd.) was subjected to digestion using restriction enzymes SalI and EcoR V, and linked to the PCR product containing GLUT9S by In-Fusion reaction using In-Fusion HD Cloning Kit (Takara Bio). XL10-Gold Competent Cells (Agilent Technologies) were transformed in In-Fusion reaction solution, and the obtained transfectants were cultured with shaking overnight in LB medium to which Blasticidin S HCl (Thermo Fisher Scientific) was added. Human GLUT9 expression plasmid DNA was prepared from the collected transfectants using EndoFree Plasmid Kit (Takara Bio).
2. Establish of Human GLUT9 Stably Expressing Cell
HEK293T cells (American Type Culture Collection, DS Pharma Biomedical) were seeded in a 6 well plate at 1×10^6 cells/well. Next day, human GLUT9 expression plasmid was transfected by using Lipofectamine 3000 Reagent (Thermo Fisher Scientific) as follows. Lipofectamine 3000 Reagent (5 μL) was diluted with Opti-MEM (125 μL, Thermo Fisher Scientific). Separately, plasmid DNA (2.5 μg) was diluted with Opti-MEM (125 μL), and P3000 Reagent (5 μL) was added thereto. The obtained solution was mixed with the previously obtained diluted solution, and the mixture was left stand at room temperature for 5 min, and added to the cells. Next day, the transfected cells were diluted and reseeded in a 6 well plate at 4×10^5 cells/well, and drug selection was performed in the presence of 30 μg/mL of Blasticidin S HCl, and thereby, Blasticidin-resistant human GLUT9 stably expressing cell line was established. Mock cells were prepared by introducing pEBMulti-Bsd vector into HEK293T cells in a similar manner.
3. Preparation of Uricase/Hyper Expression Plasmid
Uricase/Hyper expression plasmid was prepared by linking the coding regions of Aspergillus Flavus-derived uricase gene and pHyPer-Cyto vector (Evrogen) HyPer gene to the pEBMulti-Hyg vector (Wako Pure Chemical Industries, Ltd.) and then introducing it. The preparation method was performed by reference to Gout and Nucleic Acid Metabolism 2013, 37(2), 93-101, and seven repeated linker sequence of glycine-glycine-glycine-serine was prepared herein.
4. Preparation of Human GLUT9-Uricase/Hyper Coexpressing Cell
Human GLUT9 stably expressing cells were seeded at 3.6×10^7 cells per 225 cm^2 flask. Next day, Uricase/Hyper expression plasmid was transfected by using Lipofectamine 3000 Reagent as follows. Lipofectamine 3000 Reagent (40 μL) was diluted with Opti-MEM (750 μL). Separately, plasmid DNA (20 μg) was diluted with Opti-MEM (750 μL), and P3000 Reagent (40 μL) was added thereto. The obtained solution was mixed with the previously obtained diluted solution, and the mixture was left stand at room temperature for 5 min, and added to the cells. Next day, transfected cells were collected to prepare human GLUT9-Uricase/Hyper coexpressing cells.
5. Evaluation of GLUT9 Inhibitory Activity
Uricase/Hyper transiently-transfected human GLUT9 stably expressing cells or mock cells (blank) were seeded in a 96 well plate (Corning) at 1.6×10^5 cells/well, and cultured overnight at 37° C., 5% CO2. D-MEM/high glucose (Wako Pure Chemical Industries, Ltd.) containing 10% Fetal Bovine Serum (Lifetechnology) and 100 units/ml penicillin/100 μg/ml streptomycin (GIBCO) was used as a medium.
Consider `CCCCc1cnc(-c2ccc(OC)cc2)c(-c2cc(C)c(C(=O)O)c(C)c2)n1` [Example 110], for which the IC50 worked out at 0.265 µM.

For the compound `CCCCc1cnc(-c2ccc(OC)cc2)c(-c2ccc(C(=O)O)c(CC)c2)n1` [Example 111], the IC50 worked out at 0.0826 µM. The value for `COCCCc1cnc(-c2cc(F)c(OC)c(F)c2)c(-c2ccc(C(=O)O)c(F)c2)n1` [Example 112] was 0.561 µM. To `COCCCc1cnc(-c2ccc(OC)c(F)c2)c(-c2ccc(C(=O)O)c(F)c2)n1` [Example 113] belongs 1 µM; to `CCCCc1cnc(-c2ccc(OC)cc2)c(-c2ccc(C(=O)O)c(C)c2)c1` [Example 114], 0.0604 µM; to `COCCCc1cnc(-c2cc(F)c(OC)c(F)c2)c(-c2ccc(C(=O)O)c(C)c2)c1` [Example 115], 0.0497 µM. As for `COCCCc1cnc(-c2ccc(OC)cc2)c(-c2ccc(C(=O)O)c(C)c2)c1` [Example 116, 4-(2-(4-methoxyphenyl)-5-(3-methoxypropyl)pyridin-3-yl)-2-methylbenzoic Acid], the IC50 is 0.0684 µM. To `CCOCCc1cnc(-c2cc(F)c(OC)c(F)c2)c(-c2ccc(C(=O)O)cc2)n1` [Example 117] belongs 0.543 µM; to `CCCOCc1cnc(-c2ccc(OC)cc2)c(-c2ccc(C(=O)O)cc2)c1` [Example 118, 4-(2-(4-methoxyphenyl)-5-(propoxymethyl)pyridin-3-yl)benzoic Acid], 0.108 µM; to `COCCOCCCc1cnc(-c2ccc(OC)cc2)c(-c2ccc(C(=O)O)cc2)c1` [Example 119], 0.501 µM. The value for `COCCCc1cnc(-c2ccc(OC)cc2)c(-c2ccc(C(=O)O)c(Cl)c2)c1` [Example 120] was 0.539 µM; that for `COCCCc1cnc(-c2cc(F)c(OC)c(F)c2)c(-c2ccc(C(=O)O)c(Cl)c2)n1` [Example 121] was 0.501 µM; that for `COCCCCc1cnc(-c2ccc(OC)cc2)c(-c2ccc(C(=O)O)cc2)c1` [Example 123] was 0.0589 µM. The value for `COCCCCc1cnc(-c2ccc(OC)cc2)c(-c2ccc(C(=O)O)c(Cl)c2)c1` [Example 125] was 0.229 µM; that for `COCCCCc1cnc(-c2ccc(OC)cc2)c(-c2ccc(C(=O)O)c(C)c2)c1` [Example 126] was 0.0497 µM. For the compound `COCCCCc1cnc(-c2ccc(OC)cc2)c(-c2ccc(CCC(=O)O)cc2)c1` [Example 127], the IC50 turned out to be 0.0688 µM. To `COCCCCc1cnc(-c2cc(F)c(OC)c(F)c2)c(-c2ccc(C(=O)O)cc2)c1` [Example 129] belongs 0.0569 µM; to `COCCCCc1cnc(-c2cc(F)c(OC)c(F)c2)c(-c2ccc(C(=O)O)c(C)c2)c1` [Example 130], 0.0521 µM. `COCCCCc1cnc(-c2cc(F)c(OC)c(F)c2)c(-c2ccc(C(=O)O)c(Cl)c2)c1` [Example 131]: the IC50 turned out to be 0.155 µM. For the compound `COCCCCc1cnc(-c2cc(F)c(OC)c(F)c2)c(-c2ccc(CCC(=O)O)cc2)c1` [Example 132], the 50% inhibitory concentration (IC50) was 0.0519 µM. The value for `CCOCCc1cnc(-c2cc(F)c(OC)c(F)c2)c(-c2ccc(C(=O)O)c(C)c2)n1` [Example 133] was 0.313 µM; that for `CCOCCc1cnc(-c2cc(F)c(OC)c(F)c2)c(-c2ccc(CCC(=O)O)cc2)n1` [Example 134] was 0.525 µM. To `COCCCCc1cnc(-c2cc(F)c(OC)c(F)c2)c(-c2ccc(C(=O)O)c(C)c2)n1` [Example 135] belongs 0.0613 µM; to `COCCCCc1cnc(-c2cc(F)c(OC)c(F)c2)c(-c2ccc(C(=O)O)c(Cl)c2)n1` [Example 136], 0.25 µM; to `CCOCCc1cnc(-c2ccc(OC)cc2)c(-c2ccc(C(=O)O)c(C)c2)c1` [Example 137], 0.0917 µM. For the compound `CCOCCc1cnc(-c2ccc(OC)cc2)c(-c2ccc(C(=O)O)c(Cl)c2)c1` [Example 138], the IC50 was 0.499 µM. As to `CCOCCc1cnc(-c2ccc(OC)cc2)c(-c2ccc(CCC(=O)O)cc2)c1` [Example 139], the IC50 turned out to be 0.167 µM. Take `CCOCCc1cnc(-c2cc(F)c(OC)c(F)c2)c(-c2ccc(C(=O)O)cc2)c1` [Example 140]: the half-inhibitory concentration (IC50) worked out at 0.0713 µM. To `CCOCCc1cnc(-c2cc(F)c(OC)c(F)c2)c(-c2ccc(C(=O)O)c(C)c2)c1` [Example 141] belongs 0.0639 µM; to `CCOCCc1cnc(-c2cc(F)c(OC)c(F)c2)c(-c2ccc(C(=O)O)c(Cl)c2)c1` [Example 142], 0.226 µM; to `CCCOCc1cnc(-c2ccc(OC)cc2)c(-c2ccc(C(=O)O)c(C)c2)c1` [Example 143], 0.125 µM. To `CCCOCc1cnc(-c2cc(F)c(OC)c(F)c2)c(-c2ccc(CCC(=O)O)cc2)c1` [Example 146] belongs 0.139 µM; to `CCCOCc1cnc(-c2cc(F)c(OC)c(F)c2)c(-c2ccc(C(=O)O)c(C)c2)c1` [Example 147], 0.0868 µM. To `COCCCCc1cnc(-c2cc(F)c(OC)c(F)c2)c(-c2ccc(CCC(=O)O)cc2)n1` [Example 148] belongs 0.0807 µM.

As for `COc1c(F)cc(-c2ncc(CC(C)C)nc2-c2ccc(C(=O)O)c(C)c2)cc1F` [Example 149], the IC50 came out at 0.0574 µM. To `COc1c(F)cc(-c2ncc(CC(C)C)nc2-c2ccc(CCC(=O)O)cc2)cc1F` [Example 150] belongs 0.102 µM; to `COc1c(F)cc(-c2ncc(CC(C)C)nc2-c2ccc(C(=O)O)c(Cl)c2)cc1F` [Example 151], 0.106 µM. The value for `CCCCc1cnc(-c2cc(F)c(OC)c(F)c2)c(-c2ccc(C(=O)O)c(C)c2)n1` [Example 152] was 0.059 µM. To `CCCCc1cnc(-c2cc(F)c(OC)c(F)c2)c(-c2ccc(CCC(=O)O)cc2)n1` [Example 153] belongs 0.102 µM.

These data come from patent publication US10752596B2, “Nitrogen-containing heteroaryl compound and pharmaceutical use thereof” (JAPAN TOBACCO INC., priority 2017, dated 2020).
